From article PMC6572135, “N-Methyl-D-glucamine–Calix[4]resorcinarene Conjugates: Self-Assembly and Biological Properties” (Molecules, 2019)

Test: Conductometry, critical aggregation concentration
Format: physicochemical
Details: water solution, 25 °C; GCR-2 in the presence of two-fold excess of MG
Method: Firstly, self-assembly of GCR-1 was studied by conductometric measurements (Figure 1). Specific conductivity increases proportionately with the GCR-1 concentration in water solution. Inflection on the plot appears at 14 mM, and after this critical aggregation concentration (CAC) the increment rate of conductivity reduces because the aggregates transfer charge less efficiently than monomers. Remarkably, modification of calix[4]resorcinarene by N-methyl-D-glucamine fragment facilitates self-aggregation of macrocycle in water medium (Figure 1). The CAC value for calix[4]resorcinarene (CR-1) without meglumine units at the upper rim is 20 mM that is greater than that for meglumine-modified calix[4]resorcinarene. The driving forces of intermolecular aggregates’ formation are probably hydrogen bonds between hydroxyl groups on the GCR-1 upper rim, so the presence of additional OH-groups in the meglumine group reinforces this noncovalent interaction. A stable pH value, which can be observed over a wide range of concentrations, verifies that the N-methyl-D-glucamine fragment is an effective buffer component (Figure S4). […] As a result, the aggregation of this calix[4]resorcinarene was studied in water solutions at the presence of two-fold excess of N-methyl-D-glucamine (MG). […] Specific conductivity values were measured at least three times for each concentration. […]

In the case of “Sulfonatoethylcalix[4]resorcinarene [CR-1, reference compound]”, the “CAC, conductometry” value is reported as 20 mM.
